Data from patent US20070160975A1, “Method for the Identification of Drugs to Treat Stroke at Delayed Timepoints” (UNIVERSITY OF SOUTH FLORIDA, priority 2006, published 2007).

Key:
[1] = system: primary microglial cultures; experiment: LPS stimulated TNF-α release, ELISA; type: cell-based, rat; settings: TNF-α by ELISA
Protocol: (§1) FIG. 2 is a graph illustrating that sigma receptor activation reduces LPS-induced cytotoxin production. […] Nitric oxide levels were quantified using the Griess reaction while TNF-α levels were measured by ELISA.
(§2) To gauge anti-inflammatory action, primary microglial cultures will be treated with lipopolysaccharide, which elicits a robust inflammatory response from these cells. Compounds that are effective agonist stroke at delayed timepoints are able to block the LPS-induced inflammatory response in microglial cells. The inflammatory cytokine, TNF-α and nitric oxide are two inflammatory agents to be measured to determine anti-inflammatory action of the compound. […] Using these two in vitro screening methods, other compounds that will be useful in treating stroke will be discovered.
TNF-α ELISA-Capture antibody (#MAB510 anti-rat antibody TNF R&D biosysterns) will be diluted with 2 μg/ml in coating buffer and incubated at 4° C. overnight. The capture antibody will then coat a high protein binding 96 well plate. Each well of the 96 well plate will be aspirated and washed three times with wash buffer. […] During incubation, direct light will be avoided 50 μl of 1 M H2SO4 will be added to each well and optical density will be determined within 30 minutes using a microplate reader set at 450 nm.

[2] = system: primary microglial cultures; experiment: LPS stimulated nitric oxide release, Griess reaction; type: cell-based, rat; settings: nitric oxide by Griess reaction
Protocol: as §1, §2
Nitric Oxide Determination: The supematant from treated primary rat rnicrogiia cultures will be harvested, placed in 1.5 ml micro-centrifuge tubes and then centrifuged in a bench top micro-centrifuge at 13,000×g for 1 minute. The supernatant will be withdrawn and placed in a clean, labeled micro-centrifuge tube. Standards (between 100 μM and 1 μM) will be prepared by diluting stock 1 mM Sodium Nitrite, contained in the kit, with DMEM in 1.5 ml micro centrifuge tubes. […] The absorbance at 458 nm will be measured in a spectrophotometer capable of reading 96 well plates.

Cc1ccccc1N=C(N)Nc1ccccc1C [DTG]
LPS stimulated TNF-α release [1]: dose dependently reduced | LPS stimulated nitric oxide release [2]: dose dependently reduced
